Data as given in patent US11428689B2, “Methods and uses for remotely triggered protease activity measurements” (Massachusetts Institute of Technology, priority 2016, dated 2022).
“Also recorded” adds a separate entry of the source. Where no end group is shown, it is not given here. [ ]: non-standard residue; d: D form. FAM = fluorescein

Assays:
LS174T = experiment: Secreted protease activity assay with quenched substrates; type: cell-based, human; conditions: for cleavage by cell-secreted proteases: fluorescently quenched versions, LS174T conditioned supernatant
Method: Next, whether the MAPS(S1-S3) could distinguish MMP profiles of different tumor types was probed. […] Cleavage of the substrates was tested by cell-secreted proteases by employing fluorescently quenched versions and exposing them to conditioned supernatant.
LS174T and HCT-8 cells were cultured in Eagle's Minimal Essential Medium (ATCC) supplemented with 10% FBS (Gibco) and 1% penicillin-streptomycin (CellGro). Cells were passaged when confluence reached 80%. To isolate secreted proteases, after cells were plated, cells were washed and replaced in serum-free media. Media was collected and MMP2 was measured in supernatant using a Quantikine MMP-2 kit following manufacturer protocols (R&D Systems). Secretion was normalized to number of cells and days in culture. A similar approach was used when collecting supernatants for measuring proteolysis of S1-3.

MMP7 [1] = target: T1, MMP7 (Homo sapiens, UniProt P09237); experiment: In vitro recombinant protease assay (fluorescence dequenching of NP-bound substrate); type: biochemical; conditions: 100 μM final concentration
T1 construct: purchased Enzo Life Sciences
T1 sequence (P09237 95-267): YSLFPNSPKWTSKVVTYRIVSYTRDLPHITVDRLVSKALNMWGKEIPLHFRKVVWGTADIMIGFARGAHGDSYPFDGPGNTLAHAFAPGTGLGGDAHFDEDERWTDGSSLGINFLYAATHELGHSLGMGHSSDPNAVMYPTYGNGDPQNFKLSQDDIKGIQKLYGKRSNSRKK
Method: (§1) C1-NP complexes sensitive to MMP cleavage were mixed with 1% (wt/vol) BSA (Sigma) and incubated with recombinant proteases (MMPs and ADAMs: Enzo Life Sciences; Clotting proteases: Haematologic Technologies) in a final volume of 100 μL in enzyme-specific buffers (MMP buffer: 50 mM Tris, 150 mM NaCl, 5 mM CaCl2, 1 μM ZnCl2, pH 7.5; Clotting proteases: PBS) in a 384-well plate for time-lapse fluorimetry to measure dequenching from homoquenched peptides at 37° C. (SpectroMax Gemini EM Microplate Reader). For the metalloproteinase, enzymes were diluted 1:10 in enzyme specific buffer, and for clotting proteases, enzymes were diluted 1:100. Cleavage heatmap was generated using GENE-E (Broad Institute). Michaelis-Menten constants were determined by assessing initial cleavage velocities at different substrate concentrations. The MMP inhibitor Marimatstat (Tocris) was added to the mixture at 100 μM final concentration. To identify the cleavage position by MMP9, C1-NPs were incubated with MMP9 overnight, and the N-terminal cleavage fragment was isolated and analyzed by MALDI. The sequence corresponding to the dominant peak was identified, and the final amino acid was in that sequence represents the P1 position (toward the N-terminal end from scissile bond). For protease resistance assays, various DMNPE: peptide ratios were reacted overnight and purified prior to being added to proteases.

MMP9 [2] = target: T2, MMP9 (Homo sapiens, UniProt P14780); experiment: In vitro recombinant protease assay with streptavidin depletion; type: biochemical; set-up: purchased Enzo Life Sciences; conditions: ~100 nM MMP, one hour
T2 sequence (P14780 94-707, species assumed): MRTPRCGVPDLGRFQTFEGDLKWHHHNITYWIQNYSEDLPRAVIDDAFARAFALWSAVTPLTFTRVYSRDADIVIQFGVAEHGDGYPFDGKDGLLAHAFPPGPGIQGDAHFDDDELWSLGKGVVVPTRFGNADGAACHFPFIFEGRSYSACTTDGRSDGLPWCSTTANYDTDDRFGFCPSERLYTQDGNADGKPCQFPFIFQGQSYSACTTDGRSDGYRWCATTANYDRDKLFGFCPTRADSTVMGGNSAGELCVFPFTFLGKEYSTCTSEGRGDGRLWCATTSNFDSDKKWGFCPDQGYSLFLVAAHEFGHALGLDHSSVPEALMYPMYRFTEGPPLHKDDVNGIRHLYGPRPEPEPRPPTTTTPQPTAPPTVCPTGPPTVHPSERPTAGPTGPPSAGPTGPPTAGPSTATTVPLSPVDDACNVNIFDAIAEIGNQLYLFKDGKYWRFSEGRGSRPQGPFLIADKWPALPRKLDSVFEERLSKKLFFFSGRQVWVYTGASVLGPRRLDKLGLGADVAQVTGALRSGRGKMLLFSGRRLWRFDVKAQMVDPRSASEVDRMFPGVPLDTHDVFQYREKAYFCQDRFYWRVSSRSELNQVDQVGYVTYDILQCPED
Method: (§2) MMPs (˜100 nM working concentration, Enzo Life Sciences) were added to substrates in 384-well plates in activity buffer (50 mM Tris, 150 mM NaCl, 5 mM CaCl2, 1 μM ZnCl2) containing 1% BSA. After one hour, uncleaved peptide was extracted using Dynabeads Strepatividin C1 (Life Technologies) as per manufacturer protocols. An excess of Dynabeads was used.

[3] = healthy mice
Source text: (§3) The in vivo activation protocol was applied to specifically activate the three sets of MAPS to profile tumor protease activity between LS174T and HCT8 tumors.

LS174T flank tumor = conditions: LS174T tumor-bearing mice
Source text: as §3

MMP2 = target: T3, MMP2 (Homo sapiens, UniProt P08253); experiment: In vitro recombinant protease assay with streptavidin depletion; type: biochemical; conditions: ~100 nM MMP, one hour
T3 construct: purchased Enzo Life Sciences
T3 sequence (P08253 110-660): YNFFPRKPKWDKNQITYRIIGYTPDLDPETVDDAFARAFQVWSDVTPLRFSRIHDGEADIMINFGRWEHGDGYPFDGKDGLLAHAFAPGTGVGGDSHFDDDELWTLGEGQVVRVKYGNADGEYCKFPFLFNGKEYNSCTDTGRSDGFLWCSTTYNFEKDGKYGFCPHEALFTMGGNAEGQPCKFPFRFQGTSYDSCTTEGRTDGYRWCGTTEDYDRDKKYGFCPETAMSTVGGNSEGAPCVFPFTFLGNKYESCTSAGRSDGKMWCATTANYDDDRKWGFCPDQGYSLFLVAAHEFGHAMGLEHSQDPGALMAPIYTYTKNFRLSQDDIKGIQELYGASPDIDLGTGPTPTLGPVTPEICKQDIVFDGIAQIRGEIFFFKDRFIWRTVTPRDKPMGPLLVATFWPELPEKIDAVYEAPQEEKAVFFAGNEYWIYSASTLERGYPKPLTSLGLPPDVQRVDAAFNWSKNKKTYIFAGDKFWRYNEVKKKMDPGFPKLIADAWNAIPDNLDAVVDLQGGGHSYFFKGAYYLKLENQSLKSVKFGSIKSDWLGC
Method: as §2

MMP7 [4] = target: T1, MMP7; experiment: as above; type: biochemical; conditions: ~100 nM MMP, one hour
Method: as §2

MMP19 = target: T4, MMP19 (Homo sapiens, UniProt Q99542); experiment: as above; type: biochemical; conditions: ~100 nM MMP, one hour
T4 construct: purchased Enzo Life Sciences
T4 sequence (Q99542 98-508): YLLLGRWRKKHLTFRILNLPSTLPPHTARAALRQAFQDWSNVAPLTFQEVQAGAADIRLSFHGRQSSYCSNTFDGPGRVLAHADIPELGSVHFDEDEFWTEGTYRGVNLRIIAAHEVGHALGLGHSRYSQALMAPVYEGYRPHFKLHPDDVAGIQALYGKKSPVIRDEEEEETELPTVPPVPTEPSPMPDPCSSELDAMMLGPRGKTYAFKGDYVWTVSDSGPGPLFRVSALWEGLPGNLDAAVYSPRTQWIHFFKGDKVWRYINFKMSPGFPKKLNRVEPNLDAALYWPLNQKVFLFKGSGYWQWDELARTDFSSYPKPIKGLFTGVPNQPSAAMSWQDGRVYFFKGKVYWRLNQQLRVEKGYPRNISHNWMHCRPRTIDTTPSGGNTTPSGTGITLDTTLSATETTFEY
Method: as §2

LS174T cells [5] = experiment: Secreted protease activity assay, conditioned media; type: cell-based, human; conditions: conditioned media from LS174T cells
Method: LS174T and CCD-18Co (ATCC CRL-1459) cells were cultured in Eagle's Minimal Essential Medium (ATCC) supplemented with 10% FBS (Gibco) and 1% penicillin-streptomycin (CellGro). Cells were passaged when confluence reached 80%. To isolate secreted proteases, after cells were plated, cells were washed and replaced in serum-free media. Conditioned media was collected 24 h later and exposed to C1-NPs to measure fluorescence dequenching.

plasmin = plasmin (Homo sapiens, UniProt P00747); experiment: Proteolysis of alternate DMNPE-veiled substrate; type: biochemical
Sequence of plasmin (P00747 581-810 limits assumed, species assumed): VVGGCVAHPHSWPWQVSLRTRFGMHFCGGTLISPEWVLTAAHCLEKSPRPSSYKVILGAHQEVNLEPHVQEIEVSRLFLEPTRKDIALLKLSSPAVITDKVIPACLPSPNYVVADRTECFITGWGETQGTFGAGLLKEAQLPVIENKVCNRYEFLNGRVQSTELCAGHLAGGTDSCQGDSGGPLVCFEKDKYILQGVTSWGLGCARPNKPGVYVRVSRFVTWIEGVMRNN
Sequence of plasmin (P00747 97-580 partner limits assumed, species assumed): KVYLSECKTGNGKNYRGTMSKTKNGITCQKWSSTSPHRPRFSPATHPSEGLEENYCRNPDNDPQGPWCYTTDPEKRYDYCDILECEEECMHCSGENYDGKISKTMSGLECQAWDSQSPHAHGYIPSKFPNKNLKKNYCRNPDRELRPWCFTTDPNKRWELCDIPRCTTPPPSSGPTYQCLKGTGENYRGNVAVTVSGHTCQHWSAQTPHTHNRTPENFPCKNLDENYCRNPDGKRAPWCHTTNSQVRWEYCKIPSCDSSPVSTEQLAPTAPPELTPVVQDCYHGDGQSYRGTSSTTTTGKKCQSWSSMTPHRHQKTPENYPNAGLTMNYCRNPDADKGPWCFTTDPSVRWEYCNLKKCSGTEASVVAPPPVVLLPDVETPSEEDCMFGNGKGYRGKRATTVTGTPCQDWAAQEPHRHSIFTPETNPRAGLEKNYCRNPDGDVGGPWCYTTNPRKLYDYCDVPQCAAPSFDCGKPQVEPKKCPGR
Source text: To validate that the approach is generalizable to alternative substrates, the STREAMs principle was applied to a second peptide sequence. Additionally, the reporter for this additional sequence was designed to be orthogonal to the original sequence (containing a near IR dye as opposed to fluorescein). […] The ability to produce STREAMs with orthogonal reporters for multiple substrate targets, in some embodiments, enables multiplexing. Additionally, coupling this approach with alternate modes for multiplexing analyte detection, in some embodiments, enables simultaneous monitoring of several substrates.
Fluorescein-conjugated peptides (MMP sensitive, C1: FAM-sk-PLGLEEA-GC; SEQ ID NO: 3) were synthesized. D-amino acid controls were also synthesized, where the substrate sequence was all D-stereoisomers. Peptides for in vivo studies that contain a ligand-encoded reporter for urinary clearance and subsequent ELISA detection were synthesized (V1: Biotin-PEG(5 kDa)-(KFAM)-PLGLEEA-GC; SEQ ID NO: 4). The PEG 5 kDa reporter is efficiently cleared by the renal system into the urine and can be quantified by ELISA for the conjugated ligands. The alternate substrate to show STREAMs extensibility was synthesized at a different location (sequence: eGvndneeGffsarKsRLVGEGC; SEQ ID NO: 5). VT750 (PerkinElmer) was conjugated to the free lysine prior to coupling to DMNPE. […]

LS174T cells [6] = experiment: 3D collagen cancer tissue model, peptide fluorescence in supernatant; type: cell-based, human
Method: Next, the activation of the nanosensors in a 3D ECM environment was probed. Forty LS174T cells were embedded in collagen I together with veiled or unmodified nanosensors (FIG. 4A). The constructs were monitored for protease activity by collecting the supernatant and measuring liberated peptide fragments under different conditions: L-amino acid peptide substrates were compared to D-amino acid counterparts to measure nonspecific background, and the role of DMPNE veiling was measured.
In order to correlate regions of light-activation with protease activity measurements, light-activated rhodamine dye was included to visualize regions exposed to light (FIG. 12A). To explore the ability to monitor protease activity with spatial and temporal control, only the left half of the gels was illuminated.
LS174T cells were encapsulated in 2.5 mg/mL collagen hydrogels (rat tail collagen type I, Corning). Imaging was done on Nikon Eclipse Ti Inverted Microscopes and Zeiss Stereoscope Discovery v20. When protease activity was measured, surrounding media was serum-free.

MMP9 [7] = target: T2, MMP9; experiment: In vitro recombinant protease assay (fluorescence dequenching of NP-bound substrate); type: biochemical; set-up: purchased Enzo Life Sciences
Method: as §1
(§4) Light activation of peptides for biochemical studies was performed using a CL-1000 UV Cross-linker (UVP, 8 mW/cm^2). Power density was measured by an OAI 306 UV power meter at 365 nm. Typical exposure time for these studies was 10-30 min. For activation in cell and animal studies, Lumen Dynamics UV system with 365 nm fiber light guide was used (OmniCure 1000, 200 mW/cm^2). For in vivo activation at the tumor site, mice were anesthetized, and the light was guided through an optical cable and placed approximately 3 cm from the flank tumor. Each flank tumor was exposed for 30 s.

MMP9 [8] = target: T2, MMP9; experiment: Agarose gel assay; type: biochemical; conditions: light exposure 1 min, 200 mW/cm^2
Method: Agarose (type I-A, Sigma) was dissolved in MMP9 specific buffer (1% w/v) and heated. As the gel mixture was cooling, gel solution was transferred into a 96-well plate and mixed with STREAMs and recombinant MMP9. After gelation, the gels were activated (as above), and fluorescence dequenching through cleavage was monitored using time-lapse fluorimetry.

recombinant thrombin = target: T5, recombinant thrombin (Homo sapiens, UniProt P00734); experiment: In vitro recombinant protease assay (fluorescence release); type: biochemical; conditions: veiled vs unmodified
T5 construct: purchased Haematologic Technologies
Method: as §1

MMP13 = target: T6, MMP13 (Homo sapiens, UniProt P45452); experiment: In vitro recombinant protease assay (fluorescence dequenching of NP-bound substrate); type: biochemical
T6 construct: purchased Enzo Life Sciences
Method: as §1, §4

[9] = increasing periods of light exposure, 8 mW/cm^2

CNC(=O)[C@@H](NC(=O)[C@H](CC(C)C)[C@H](O)C(=O)NO)C(C)(C)C [Marimastat]
effect of inhibitor on proteolysis by LS174T secreted proteases (LS174T): abrogated
effect of inhibitor on proteolysis of C1-NP by MMP7 (MMP7 [1]): inhibited; also recorded: abrogates cleavage

Biotin-CGPLGVRGKK(Cy7)eGvndneeGffsar-NH2 [S3]
cleavage by cell-secreted proteases (LS174T): minimal cleavage
relative proteolysis by MMP9 (MMP9 [2]): responded primarily
background cleavage of free peptide [3]: lowest background cleavage
urine signal of free peptide (LS174T flank tumor): similar
relative proteolysis by MMP2 (MMP2): responded primarily

Biotin-CGPVGLIGK(Cy7)eGvndneeGffsar-NH2 [S1]
cleavage by cell-secreted proteases (LS174T): cleaved most significantly
relative proteolysis by MMP9 (MMP9 [2]): responded primarily
urine signal of free peptide (LS174T flank tumor): elevated
relative proteolysis by MMP2 (MMP2): responded primarily

Biotin-CGPVPLSLVMK(Cy7)eGvndneeGffsar-NH2 [S2]
cleavage by cell-secreted proteases (LS174T): minimal cleavage
urine signal of free peptide (LS174T flank tumor): similar
relative proteolysis by MMP7 (MMP7 [4]): cleaved efficiently
relative proteolysis by MMP19 (MMP19): cleaved efficiently

FAM-sk-plGleea-GC ({FAM}-[dS][dK][dP][dL]G[dL][dE][dE][dA]GC; also: nanoparticle conjugated) [control NPs conjugated to D-amino acid stereoisomers]
cleavage by cell-secreted proteases (LS174T cells [5]): not cleaved

RLVGEGC [eGvndneeGffsarKsRLVGEGC]
proteolysis by plasmin after coupling of DMNPE (plasmin): reduced proteolysis
proteolysis by plasmin after UV exposure (plasmin; then UV): recovered

STREAMs: C1-NPs whose peptide is veiled with photolabile DMNPE groups; unveiled by 365 nm light ({FAM}-[dS][dK]PLGLE(DMNPE)E(DMNPE)AGC(iron oxide nanoparticle); not fully specified)
liberated peptide fluorescence in supernatant (LS174T cells [6]; first day, no light): significantly less peptide fluorescence compared to unmodified L-amino acid sensors
peptide fluorescence in supernatant after light exposure (LS174T cells [6]; left half of gels illuminated, 24 h, 30 s at 200 mW/cm^2): higher levels of peptide fluorescence
proteolysis by MMP9 after exposure to 365 nm light (MMP9 [7]; [9]): elevated proteolysis in a light exposure-dependent manner
stability of DMNPE conjugation (resistance to MMP9-mediated cleavage) (MMP9 [7]; two weeks post-DMNPE-coupling): equal levels of protection compared to freshly conjugated samples
proteolysis by MMP9 after conjugation with DMNPE (MMP9 [7]; veiled vs unmodified, no light): marked reduction in proteolysis
proteolytic cleavage after light exposure in agarose gel (MMP9 [8]): dramatic increase in proteolytic cleavage
cleavage by thrombin (recombinant thrombin): reduced cleavage
proteolysis by MMP13 after exposure to 365 nm light (MMP13; [9]): elevated proteolysis in a light exposure-dependent manner
proteolysis by MMP13 after conjugation with DMNPE (MMP13; veiled vs unmodified, no light): marked reduction in proteolysis
